Test in all cases: growth of human tumour cells (NCI), 48 h
Experiment [1] relates to UO-31 renal.
Experiment [2] relates to SW-620 colon.
Experiment [3] has as its system UACC-257 melanoma.
Experiment [4] concerns MDA-MB-435.
In experiment [5] the test system is OVCAR-8 ovarian.
For experiment [6], the system named is DU-145 prostate.
In experiment [7] the test system is HS 578T breast.
Experiment [8] has as its system SF-295 CNS.
Experiment [9] has as its system A549 NSCLC.
The subject of experiment [10] is SF-268 CNS.

Where “and” joins values, the source holds several entries; their conditions need not be identical. Identical values can stand only once.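 Where inhibition never reached the appropriate level, the endpoint shown equals the highest concentration tested. Otherwise, values were interpolated linearly from a five-concentration, 48-hour dose response in 96-well plates. The concentration for 50% growth inhibition is given as GI50. TGI is the concentration that stops growth completely.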

With `Cc1cccc(C2NC(=O)c3ccccc3N2)c1` (centres undefined), the TGI was over 100 µM in experiment [1]; over 100 µM in experiment [2]; over 100 µM in experiment [3]; 2.77 µM in [4]; over 100 µM in experiment [5]; over 100 µM in experiment [6]. For the same compound, the TGI is 65.1 µM in [7], over 23.2 µM in experiment [8], over 100 µM in experiment [9] and over 100 µM in experiment [10].
`CCN(CC)C(=S)SSC(C)C`: the GI50 in experiment [1] was 8990 nM; in experiment [2], 3010 nM; in experiment [3], 21700 nM; in experiment [4] it was 16100 nM; in experiment [5], 15.1 µM; in experiment [6], 17100 nM. For the same compound, the GI50 was 936 nM in experiment [7], 17.9 µM in experiment [8], 31.2 µM in [9] and 16200 nM in experiment [10]. The TGI in [1] came out at 24.1 µM; in [2], 14 µM; in experiment [3], 95.8 µM; in experiment [4], 49.5 µM; in experiment [5], 35.4 µM; in [6] it was 35.2 µM. The TGI in [7] is 28.3 µM; in experiment [8] it was 49 µM; in experiment [9], over 100 µM; in experiment [10], 37 µM.
Regarding `O=C1NC(=NCCc2ccc(Cl)cc2)S/C1=C\c1ccc2ncccc2c1`, the GI50 is over 18900 nM in [1]; 14200 nM in [2]; over 25000 nM in [3]; 10000 nM in [4]; 12.9 µM in [5]; 24400 nM in experiment [6]. Further, the GI50 in experiment [7] was 9770 nM; in [8], 24.4 µM; in experiment [9], 15 µM; in [10] it was 11700 nM. Besides, the TGI in [1], in [2], in experiment [3], in experiment [4], in experiment [5] and in experiment [6] was over 25 µM in each case. Moreover, the TGI in experiment [7], in [8], in [9] and in experiment [10] was over 25 µM in each case.
As for `COc1ccc(-n2c(=S)sc3c(Cl)nc(C)nc32)c(OC)c1`, the GI50 in experiment [1] is 3620 nM; in experiment [2], 2570 nM; in experiment [3], 2350 nM; in [4], 2140 nM; in [5], 2.66 µM; in experiment [6] it was 1840 nM. Also, the GI50 in experiment [7] is 2660 nM; in experiment [8] it was 7.06 µM; in [9], 4.45 µM; in [10] it was 2170 nM. In addition, the TGI came out at 15.4 µM in experiment [1]; 5.44 µM in experiment [2]; 5.62 µM in experiment [3]; 3.93 µM in [4]; 7.4 µM in experiment [5]; 3.25 µM in [6]. Moreover, the TGI in experiment [7] stood at 7.71 µM; in experiment [8] it was 20.1 µM; in experiment [9], 15.8 µM; in [10], 5.21 µM.
For `OCC(O)C(O)C(O)C(/C=N\Nc1ncnc2c(Br)cc(Br)cc12)=N/Nc1ncnc2c(Br)cc(Br)cc12` (centres undefined), the GI50 in [1] is 21700 nM and > 100000 nM; in experiment [4], 5240 nM and 12600 nM; in [5] it was 11.7 µM and 3.76 µM; in experiment [8] it was 2.46 µM and 10.9 µM; in experiment [9], 5.04 µM and 15.4 µM. Further, the TGI in experiment [1] is 54.2 µM and > 100 µM; in experiment [2], over 100 µM; in [3] it was 33.2 µM and > 100 µM; in [4], 21.7 µM and > 100 µM; in experiment [5], 28.3 µM and > 100 µM; in experiment [6] it was 14.7 µM and > 100 µM. Further, the TGI was over 100 µM in [7]; 21.6 µM and > 100 µM in experiment [9]; 11.9 µM and > 100 µM in experiment [10].
For the compound `COc1cc(/C=N/NC(=O)c2cnn3c2NC(c2ccccc2)C3)ccc1OC1CCCC1` (centres undefined), the GI50 in experiment [1] was 1220 nM; in [2] it was 468 nM; in experiment [3], 1450 nM; in [4] it was 258 nM; in experiment [5], 1.57 µM; in experiment [6], 1060 nM. The GI50 in experiment [7] was 705 nM; in experiment [8], 0.367 µM; in experiment [9] it was 0.731 µM; in experiment [10], 1880 nM. Besides, the TGI in [1] stood at 6.59 µM; in [2] it was 2.38 µM; in [3], 12 µM; in experiment [4] it was 1.28 µM; in [5], 7.61 µM; in experiment [6] it was 7.03 µM. Further, the TGI in experiment [7] is 4.14 µM; in experiment [8], 1.66 µM; in experiment [9], 3.86 µM; in [10], 13.1 µM.
With `O=C1/C(=C/c2ccccc2)Oc2cc(O)ccc21`, the TGI in experiment [1], in experiment [2], in experiment [3], in experiment [4], in experiment [5] and in experiment [6] was over 100 µM in each case. Moreover, the TGI in experiment [7], in experiment [8], in experiment [9] and in experiment [10] was over 100 µM each time.
`Nc1cc2c3c(cccc3c1)C(=O)N(CCN1CCCC1)C2=O`: the GI50 in experiment [1] is 2350 nM; in experiment [2], 2390 nM; in experiment [3] it was 3350 nM; in experiment [4] it was 4060 nM; in experiment [5], 3.69 µM; in [6], 2010 nM. Besides, the GI50 in [7] was 4830 nM; in [8], 2.59 µM; in experiment [9], 1.79 µM; in [10], 4620 nM. The TGI in experiment [1] is over 100 µM; in [2], over 53.8 µM; in [3], 24.5 µM; in experiment [4], 14.8 µM; in [5], over 100 µM; in [6] it was 37.4 µM. Further, the TGI in experiment [7] was 35 µM; in experiment [8], 11.2 µM; in experiment [9], over 100 µM; in experiment [10], 30.5 µM.
Turning to `Cn1c(COC(=O)NCCc2ccccn2)nc2c(N3CCOCC3)nc(Cl)nc21`, the GI50 in [1] was 1190 nM; in [2] it was 1280 nM; in experiment [3], 1530 nM; in experiment [4] it was 1460 nM; in experiment [5] it was 2.38 µM; in experiment [6] it was 1590 nM. Moreover, the GI50 in experiment [7] was 2000 nM; in [8] it was 6.73 µM; in experiment [9] it was 1.85 µM; in experiment [10], 1520 nM. Further, the TGI worked out at 2.45 µM in experiment [1]; 2.98 µM in experiment [2]; 3.28 µM in [3]; 3.46 µM in [4]; 10.1 µM in [5]; 3.11 µM in [6]. For the same compound, the TGI in experiment [7] amounted to 6.22 µM; in [8], 19.8 µM; in [9] it was 5.96 µM; in [10], 3.11 µM.
`CC1CCC2C(C)C(=O)OC2C2(C)C(=O)C=CC12` (centres undefined): the TGI in experiment [1], in [2], in [3], in [4], in [5] and in [6] was over 10 µM in each case. Also, the TGI in experiment [7], in experiment [8], in experiment [9] and in experiment [10] was over 10 µM throughout.
With `Oc1ccc(Cl)cc1C=Nc1cnc2ccccc2c1`, the TGI was over 100 µM in experiment [1]; over 100 µM in experiment [2]; 45.3 µM in experiment [3]; over 100 µM in experiment [4]; over 100 µM in [5]; over 100 µM in experiment [6]. Also, the TGI in experiment [7], in [8], in experiment [9] and in experiment [10] was over 100 µM each time.
Turning to `CSc1nc(Nc2cccc(NC(=O)CCl)c2)c(C#N)c(-c2cccc([N+](=O)[O-])c2)n1`, the GI50 in experiment [1] is 1620 nM; in experiment [2] it was 1930 nM; in [3], 2180 nM; in experiment [4], 2150 nM; in experiment [5] it was 2.39 µM; in [6], 2250 nM. For the same compound, the GI50 is 3210 nM in experiment [7], 9.83 µM in experiment [8], 16.6 µM in [9] and 2240 nM in experiment [10]. Moreover, the TGI in experiment [1] was found to be 5.73 µM; in [2], 5.11 µM; in experiment [3], 5.2 µM; in [4] it was 5.16 µM; in [5] it was 9.37 µM; in experiment [6], 4.57 µM. Besides, the TGI in [7] was determined as 30.7 µM; in experiment [8] it was 36.4 µM; in experiment [9], 49.7 µM; in [10], 5.72 µM.
Take `O=C(Nc1sc2c(c1C(=O)O)CCCC2)c1ccco1`: the GI50 in [1] was over 50000 nM; in [2], over 50000 nM; in [3], over 50000 nM; in [4] it was over 50000 nM; in experiment [5] it was over 50 µM; in experiment [6], over 50000 nM. For the same compound, the GI50 in experiment [7] was over 50000 nM; in experiment [8], 26.3 µM; in [9], 19.1 µM; in [10], 25700 nM. The TGI in experiment [1], in experiment [2], in experiment [3], in experiment [4], in experiment [5] and in experiment [6] was over 50 µM throughout. Also, the TGI in experiment [7], in [8], in experiment [9] and in experiment [10] was over 50 µM throughout.
In the case of `Cc1ccc(/C(=N/Nc2ccc([N+](=O)[O-])cc2)Sc2cc(Cl)c(C)cc2S(N)(=O)=O)cc1`, the GI50 in [1] was 2560 nM; in [2], 2550 nM; in [3] it was 6450 nM; in [4], 1730 nM; in experiment [5], 7.38 µM; in experiment [6] it was 1750 nM. The GI50 was 2450 nM in experiment [7], 1.75 µM in [8], 2.55 µM in [9] and 1910 nM in [10]. The TGI in experiment [1] is 10.7 µM; in experiment [2], 10.5 µM; in experiment [3], 18.8 µM; in experiment [4], 3.89 µM; in [5], over 100 µM; in experiment [6], 4.1 µM. Further, the TGI in experiment [7] was over 23.5 µM; in experiment [8], 3.39 µM; in experiment [9], 7.45 µM; in experiment [10], 7.37 µM.
`COc1cc(C2CC(c3ccc(Nc4nc(NCCO)nc(NCCO)n4)cc3)=NN2c2cc(Cl)cc(Cl)c2)cc(OC)c1OC` (centres undefined): the GI50 in [1] is 2080 nM; in experiment [2] it was 1800 nM; in experiment [3], 1860 nM; in [4] it was 1550 nM; in experiment [5], 2.01 µM; in [6], 1840 nM. Besides, the GI50 in experiment [7] is 644 nM; in experiment [8], 1.16 µM; in experiment [9], 1.38 µM; in experiment [10] it was 1520 nM. Besides, the TGI in experiment [1] came to 8.09 µM; in [2] it was 3.79 µM; in experiment [3] it was 3.87 µM; in experiment [4], 3.24 µM; in experiment [5], 5.86 µM; in experiment [6], 4.11 µM. The TGI in [7] amounted to 3.34 µM; in [8], 2.87 µM; in [9], 3.22 µM; in [10], 4.09 µM.
